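Where inhibition never reached the appropriate level, the endpoint shown equals the highest concentration tested. Otherwise, values were interpolated linearly from a five-concentration, 48-hour dose response in 96-well plates. At the TGI there is no net growth.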
How the values were obtained:
Assay in all cases: NCI tumour cell line growth inhibition, 48 h
A549 NSCLC = system: A549 NSCLC
TK-10 renal = system: TK-10 renal
UACC-257 melanoma = system: UACC-257 melanoma
ACHN renal = system: ACHN renal
DU-145 prostate = system: DU-145 prostate
M14 melanoma = system: M14 melanoma
NCI-H226 lung = system: NCI-H226 lung
COLO 205 colon = system: COLO 205 colon
KM12 colon = system: KM12 colon
RXF 393 renal = system: RXF 393 renal
SR leukemia = system: SR leukemia
HCC-2998 colon = system: HCC-2998 colon
HCT-116 colon = system: HCT-116 colon
NCI/ADR-RES ovarian = system: NCI/ADR-RES ovarian
SK-MEL-28 melanoma = system: SK-MEL-28 melanoma
SF-268 CNS = system: SF-268 CNS
T-47D breast = system: T-47D breast
NCI-H522 lung = system: NCI-H522 lung
CAKI-1 renal = system: CAKI-1 renal
OVCAR-3 ovarian = system: OVCAR-3 ovarian
HOP-92 NSCLC = system: HOP-92 NSCLC
MALME-3M melanoma = system: MALME-3M melanoma
786-0 renal = system: 786-0 renal
UACC-62 melanoma = system: UACC-62 melanoma
MCF7 breast = system: MCF7 breast
EKVX NSCLC = system: EKVX NSCLC
PC-3 prostate = system: PC-3 prostate
SK-MEL-5 melanoma = system: SK-MEL-5 melanoma
SF-295 CNS = system: SF-295 CNS
OVCAR-5 ovarian = system: OVCAR-5 ovarian
HCT-15 colon = system: HCT-15 colon
MOLT-4 leukemia = system: MOLT-4 leukemia
K-562 leukemia = system: K-562 leukemia
HS 578T breast = system: HS 578T breast
UO-31 renal = system: UO-31 renal
SK-MEL-2 melanoma = system: SK-MEL-2 melanoma
NCI-H23 lung = system: NCI-H23 lung
BT-549 breast = system: BT-549 breast
SNB-75 CNS = system: SNB-75 CNS
MDA-MB-435 = system: MDA-MB-435
SNB-19 CNS = system: SNB-19 CNS
OVCAR-4 ovarian = system: OVCAR-4 ovarian
MDA-MB-231 breast = system: MDA-MB-231 breast
IGROV1 ovarian = system: IGROV1 ovarian
A498 renal = system: A498 renal
HOP-62 NSCLC = system: HOP-62 NSCLC
CCRF-CEM leukemia = system: CCRF-CEM leukemia
SK-OV-3 ovarian = system: SK-OV-3 ovarian
SW-620 colon = system: SW-620 colon
NCI-H460 lung = system: NCI-H460 lung
SN12C renal = system: SN12C renal
MDA-N = system: MDA-N
U251 CNS = system: U251 CNS
HT29 colon = system: HT29 colon
OVCAR-8 ovarian = system: OVCAR-8 ovarian
LOX IMVI melanoma = system: LOX IMVI melanoma
SF-539 CNS = system: SF-539 CNS
RPMI-8226 leukemia = system: RPMI-8226 leukemia

CCCCCCCCC/C=C1\CC(CO)(COC(=O)c2ccccc2)OC1=O (stereo not given)
TGI (A549 NSCLC): 52.9 µM | TGI (TK-10 renal): 44.4 µM | TGI (UACC-257 melanoma): 79.9 µM | TGI (ACHN renal): > 100 µM | TGI (DU-145 prostate): > 100 µM | TGI (M14 melanoma): 36.6 µM | TGI (NCI-H226 lung): 57.9 µM | TGI (COLO 205 colon): 33 µM | TGI (KM12 colon): 57.2 µM | TGI (RXF 393 renal): 47.4 µM | TGI (SR leukemia): > 100 µM | TGI (HCC-2998 colon): 39.3 µM | TGI (HCT-116 colon): 52.8 µM | TGI (NCI/ADR-RES ovarian): 51.9 µM | TGI (SK-MEL-28 melanoma): 31.8 µM | TGI (SF-268 CNS): 54 µM | TGI (T-47D breast): 72.6 µM | TGI (NCI-H522 lung): 33.4 µM | TGI (CAKI-1 renal): 52.5 µM | TGI (OVCAR-3 ovarian): 43.1 µM | TGI (HOP-92 NSCLC): 30.4 µM | TGI (MALME-3M melanoma): 39.5 µM | TGI (786-0 renal): 39.8 µM | TGI (UACC-62 melanoma): 79.4 µM | TGI (MCF7 breast): 48.9 µM | TGI (EKVX NSCLC): 34 µM | TGI (PC-3 prostate): 34.7 µM | TGI (SK-MEL-5 melanoma): 28.6 µM | TGI (SF-295 CNS): 39 µM | TGI (OVCAR-5 ovarian): 33.2 µM | TGI (HCT-15 colon): 35.5 µM | TGI (MOLT-4 leukemia): > 100 µM | TGI (K-562 leukemia): > 100 µM | TGI (HS 578T breast): 40.2 µM | TGI (UO-31 renal): 32.8 µM | TGI (SK-MEL-2 melanoma): > 100 µM | TGI (NCI-H23 lung): 41.9 µM | TGI (BT-549 breast): 52.1 µM | TGI (SNB-75 CNS): 38.3 µM | TGI (MDA-MB-435): 36.3 µM | TGI (SNB-19 CNS): 40.2 µM | TGI (OVCAR-4 ovarian): > 100 µM | TGI (MDA-MB-231 breast): 40.4 µM | TGI (IGROV1 ovarian): 70.4 µM | TGI (A498 renal): 58.3 µM | TGI (HOP-62 NSCLC): 29.8 µM | TGI (CCRF-CEM leukemia): > 100 µM | TGI (SK-OV-3 ovarian): 43.3 µM | TGI (SW-620 colon): 34.2 µM | TGI (NCI-H460 lung): 47.6 µM | TGI (SN12C renal): 49.7 µM | TGI (MDA-N): 43.1 µM | TGI (U251 CNS): 39.5 µM | TGI (HT29 colon): 35.3 µM

NC(=O)NCCSC1CCCCC1O (stereo not given)
TGI (A549 NSCLC): > 100 µM | TGI (TK-10 renal): > 100 µM | TGI (UACC-257 melanoma): > 100 µM | TGI (ACHN renal): > 100 µM | TGI (DU-145 prostate): > 100 µM | TGI (M14 melanoma): > 100 µM | TGI (NCI-H226 lung): > 100 µM | TGI (COLO 205 colon): > 100 µM | TGI (KM12 colon): > 100 µM | TGI (RXF 393 renal): > 100 µM | TGI (SR leukemia): > 100 µM | TGI (HCT-116 colon): > 100 µM | TGI (NCI/ADR-RES ovarian): > 100 µM | TGI (SK-MEL-28 melanoma): > 100 µM | TGI (SF-268 CNS): > 100 µM | TGI (T-47D breast): > 100 µM | TGI (NCI-H522 lung): > 100 µM | TGI (CAKI-1 renal): > 100 µM | TGI (OVCAR-3 ovarian): > 100 µM | TGI (HOP-92 NSCLC): > 100 µM | TGI (MALME-3M melanoma): > 100 µM | TGI (OVCAR-8 ovarian): > 100 µM | TGI (786-0 renal): > 100 µM | TGI (UACC-62 melanoma): > 100 µM | TGI (MCF7 breast): > 100 µM | TGI (EKVX NSCLC): > 100 µM | TGI (PC-3 prostate): > 100 µM | TGI (SK-MEL-5 melanoma): > 100 µM | TGI (SF-295 CNS): > 100 µM | TGI (OVCAR-5 ovarian): > 100 µM | TGI (HCT-15 colon): > 100 µM | TGI (MOLT-4 leukemia): 78 µM | TGI (K-562 leukemia): > 100 µM | TGI (HS 578T breast): > 100 µM | TGI (LOX IMVI melanoma): > 100 µM | TGI (SF-539 CNS): > 100 µM | TGI (UO-31 renal): > 100 µM | TGI (SK-MEL-2 melanoma): > 100 µM | TGI (NCI-H23 lung): > 100 µM | TGI (BT-549 breast): > 100 µM | TGI (SNB-75 CNS): > 100 µM | TGI (MDA-MB-435): > 100 µM | TGI (SNB-19 CNS): > 100 µM | TGI (OVCAR-4 ovarian): > 100 µM | TGI (MDA-MB-231 breast): > 100 µM | TGI (IGROV1 ovarian): > 100 µM | TGI (A498 renal): > 100 µM | TGI (HOP-62 NSCLC): > 100 µM | TGI (SK-OV-3 ovarian): > 100 µM | TGI (RPMI-8226 leukemia): > 100 µM | TGI (SW-620 colon): > 100 µM | TGI (NCI-H460 lung): > 100 µM | TGI (SN12C renal): > 100 µM | TGI (MDA-N): > 100 µM | TGI (U251 CNS): > 100 µM | TGI (HT29 colon): > 100 µM
